Laboratory results as given in patent US20220402916A1, “SMALL MOLECULE INHIBITORS OF KRAS G12C MUTANT” (Merck Sharp & Dohme Corp., priority 2019, published 2022).

What was measured:
[1] = target: T1, Biotinylated KRAS G12C protein (Homo sapiens, UniProt P01116, C118S/C51S/C80L/G12C); test: SOS-catalyzed nucleotide exchange assay; assay type: biochemical; conditions: apparent potency; preincubation time of 60 minutes prior to addition of SOS
T1 construct: 183 amino acids; biotin on K10

NCI-H358 cells = test: Cellular phospho-ERK assay; assay type: cell-based; conditions: Homo sapiens, NCI-H358, 2 h, NCI-H358 cells; 2 hour incubation; ratio of p-Erk vs total Erk; read-out: IC50
Procedure, shortened: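 15,000 cells/well seeded overnight, then dose-response compound treatment for 2 h at 37 °C in RPMI medium. Lysed and read by AlphaLISA SureFire Ultra multiplex; p-ERK/total ERK ratio as readout, IC50 from 4-parameter logistic fit.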

T1 sequence (P01116 with tags, fused parts or gaps isoform P01116-2 G12C/C51S/C80L/C118S): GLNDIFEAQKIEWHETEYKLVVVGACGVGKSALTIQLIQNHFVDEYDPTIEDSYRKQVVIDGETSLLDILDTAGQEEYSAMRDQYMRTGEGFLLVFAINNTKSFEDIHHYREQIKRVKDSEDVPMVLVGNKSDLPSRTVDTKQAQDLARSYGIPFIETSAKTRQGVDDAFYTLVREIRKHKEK

Row | Compound | IC50 [1] | IC50 (NCI-H358 cells)
1 | C=CC(=O)N1CCN(c2cc(C(=O)N[C@H]3CC[C@@H](NC)CC3)nc3c2CCN(c2cccc4cccc(C)c24)C3)C[C@@H]1CC#N [Compound 96, 4-((S)-4-acryloyl-3-(cyanomethyl)piperazin-1-yl)-N-(cis-4-(methylamino)cyclohexyl)-7-(8-methylnaphthalen-1-yl)-5,6,7,8-tetrahydro-1,7-naphthyridine-2-carboxamide] | 56 nM | 5470 nM
2 | C=CC(=O)N1CCN(c2cc(C(=O)N[C@H]3CNCC[C@H]3F)nc3c2CCN(c2cccc4cccc(C)c24)C3)C[C@@H]1CC#N [Compound 103, 4-((S)-4-acryloyl-3-(cyanomethyl)piperazin-1-yl)-N-((3S,4R)-4-fluoropiperidin-3-yl)-7-(8-methylnaphthalen-1-yl)-5,6,7,8-tetrahydro-1,7-naphthyridine-2-carboxamide] | 26 nM | 14900 nM
3 | C=CC(=O)N1CCN(c2cc(C(=O)NC[C@]3(F)CCCNC3)nc3c2CCN(c2cccc4cccc(C)c24)C3)C[C@@H]1CC#N [Compound 107, 4-((S)-4-acryloyl-3-(cyanomethyl)piperazin-1-yl)-N-(((S)-3-fluoropiperidin-3-yl)methyl)-7-(8-methylnaphthalen-1-yl)-5,6,7,8-tetrahydro-1,7-naphthyridine-2-carboxamide] | 54 nM | 7350 nM

These reach a lower IC50 [1]. Values come first.

Row | IC50 [1] | IC50 (NCI-H358 cells) | Compound
4 | 22 nM | 5880 nM | C=CC(=O)N1CCN(c2cc(C(=O)NC3(CC#N)CNC3)nc3c2CCN(c2cccc4cccc(C)c24)C3)C[C@@H]1CC#N [Compound 100, (S)-4-(4-acryloyl-3-(cyanomethyl)piperazin-1-yl)-N-(3-(cyanomethyl)azetidin-3-yl)-7-(8-methylnaphthalen-1-yl)-5,6,7,8-tetrahydro-1,7-naphthyridine-2-carboxamide]
5 | 15 nM | 2480 nM | C=CC(=O)N1CCN(c2cc(C(=O)NC[C@@H]3CCCN3)nc3c2CCN(c2cccc4cccc(C)c24)C3)C[C@@H]1CC#N [Compound 97, 4-((S)-4-acryloyl-3-(cyanomethyl)piperazin-1-yl)-7-(8-methylnaphthalen-1-yl)-N-(((S)-pyrrolidin-2-yl)methyl)-5,6,7,8-tetrahydro-1,7-naphthyridine-2-carboxamide]
6 | 12 nM | 4900 nM | C=CC(=O)N1CCN(c2cc(C(=O)NCC[C@H]3CCCN3)nc3c2CCN(c2cccc4cccc(C)c24)C3)C[C@@H]1CC#N [Compound 104, 4-((S)-4-acryloyl-3-(cyanomethyl)piperazin-1-yl)-7-(8-methylnaphthalen-1-yl)-N-(2-((R)-pyrrolidin-2-yl)ethyl)-5,6,7,8-tetrahydro-1,7-naphthyridine-2-carboxamide]
7 | 6.2 nM | 1040 nM | C=CC(=O)N1CCN(c2cc(C(=O)NC[C@H]3CCCN3)nc3c2CCN(c2cccc4cccc(C)c24)C3)C[C@@H]1CC#N [Compound 98, 4-((S)-4-acryloyl-3-(cyanomethyl)piperazin-1-yl)-7-(8-methylnaphthalen-1-yl)-N-(((R)-pyrrolidin-2-yl)methyl)-5,6,7,8-tetrahydro-1,7-naphthyridine-2-carboxamide]
